US12577417B2, “Active energy ray-curable aqueous ink, recording method and recording apparatus” (CANON KABUSHIKI KAISHA, priority 2021, dated 2026)

Assay: Water solubility of bifunctional polymerizable monomer
Assay type: physicochemical
Conditions: mixed with ion exchanged water at 25° C.; concentration at which no insoluble matter is found by visual observation
Experimental: When a bifunctional polymerizable monomer is mixed with ion exchanged water at 25° C. and the concentration at which no insoluble matter is found as a result of visual observation of the resulting mixture is shown as water solubility. Higher water solubility is preferred and the evaluation criteria is as follows.
A: no insoluble matter is found at 20% by mass
B: no insoluble matter is found at 5% by mass
C: no insoluble matter is found at 1% by mass
D: an insoluble matter is found at 1% by mass

Question: With C=CC(=O)NCCCOCCOCCOCCCN(O)C(=O)C=C [Comparative compound 1, reference compound] as the compound, how does the Water solubility read?
Answer: A (no insoluble matter is found at 20% by mass)

Question: Which Water solubility does the source give for C=CC(=O)NCCCCCC(=O)NCCOCCOCCNC(=O)CCCCCNC(=O)C=C [Curable substance 2] here?
Answer: C (no insoluble matter is found at 1% by mass)

Question: Which Water solubility does the source give for C=CC(=O)NCCC(=O)NCCCNC(=O)CCNC(=O)C=C [Curable substance 3] here?
Answer: B (no insoluble matter is found at 5% by mass)

Question: Which Water solubility does the source give for C=CC(=O)NCCCC(=O)NCCCNC(=O)CCCNC(=O)C=C [Curable substance 4] here?
Answer: B (no insoluble matter is found at 5% by mass)

Question: For C=CC(=O)NCCCCCC(=O)NCCNC(=O)CCCCCNC(=O)C=C [Curable substance 12], which Water solubility is on record?
Answer: C (no insoluble matter is found at 1% by mass)

Question: For C=CC(=O)NCCC(=O)NCCOCCOCCNC(=O)CCNC(=O)C=C [Curable substance 1], which Water solubility is on record?
Answer: A (no insoluble matter is found at 20% by mass)

Question: With C=CC(=O)NCCOCCOCCNC(=O)C=C [Comparative compound 2, reference compound] as the compound, how does the Water solubility read?
Answer: A (no insoluble matter is found at 20% by mass)
